According to patent US10391070B2, “Compositions and methods for treating neurological diseases or injury” (MUSC FOUNDATION FOR RESEARCH DEVELOPMENT, priority 2012, dated 2019):
Read-outs that look alike come from different tables or passages of the source.

Columns and labels:
Assay type in all cases: cell-based, mouse
HT22 cells [1] = test: In vitro neuroprotective activity against glutamate-induced cell death (MTS cell viability); conditions: Mus musculus, read-out: Protection PC50
Procedure: (§1) The HT22 neuronal cell line is a subclone of HT4, derived from the mouse hippocampus (Morimoto and Koshland, 1990). […] HT22 cells were used. The cells were grown in Dulbecco's Modified Eagle's medium (DMEM/high glucose) supplemented with 10% fetal bovine serum (Hyclone) and 5 mL Antibiotic-Antimycotic (Amphotericin B, Penicillin, and Streptomycin; Invitrogen) at 37° C. in 5% CO2.
(§2) Cell viability was assessed by the ability of the viable cells to metabolize 3-(4,5-dimethylthiazol-2-yl)-5-(3-carboxymethoxyphenyl)-2(4-sulfophenyl)2-H-tetrazolium, inner salt (MTS), as described previously (Cory et al., 1991). The metabolism of tetrazolium salts is often used to measure cellular proliferation, but in the system used here, it has been previously shown to correlate well with cell viability as determined by trypan blue exclusion and colony-forming assays (Davis and Maher, 1994). Briefly, HT-22 cells were seeded onto 96-well plates at 5.0×10^3 cells per well in 75 μL of medium and maintained at 37° C. in 5% CO2 overnight prior to the initiation of experimental treatments. For glutamate toxicity testing, cells were subsequently treated with 25 μL of medium containing glutamate (monosodium glutamate, Sigma, 1 M stock concentration in media, to achieve a final concentration of 10 mM) plus inhibitors (stock in DMSO) and maintained at 37° C. in 5% CO2. For t-BuOOH toxicity testing, cells were subsequently treated with 25 μL of medium containing t-BuOOH (Sigma, 10 mM stock concentration, to achieve a final concentration of 50 μM) plus inhibitors (stock in DMSO) and maintained at 37° C. in 5% CO2 for 3 hours, after which the media was removed, cells washed gently with HBSS, the media replaced with standard culture media, and the cells returned to incubation at 37° C. in 5% CO2. For both glutamate and t-BuOOH treatments, 10 μl of MTS solution was added to each well 24 hrs after initial treatment, and the cells were maintained in growth medium for 2 h at 37° C. Absorbance at 490 nm was subsequently measured by a SpectraMax 190 plate reader (Molecular Devices). The growth medium without cells in the presence of MTS solution was used as solution background and untreated cells were considered the controls. Cell viability was calculated as a percentage compared with untreated controls. EC50 determinations were based on 12-point titrations using GraphPad Prism, and each experiment was repeated at least four times. Morphology of HT22 cells following treatments was determined by phase-contrast microscopy. Digital images of cells grown on cell culture plates were captured at 10× magnification.
The neuroprotective properties of VK and its derivatives were estimated through their protective effects against cell death in mouse neuronal HT22 cells induced by exposure to high levels of glutamate, which recapitulates a hallmark of the extracellular environment found in several neurodegenerative diseases and CNS injuries and is a well established model of neuronal oxidative stress. This investigation began by comparing the relative abilities of the two predominant naturally occurring forms of VK, VK1 and VK2, to prevent oxidative cell death. […] Several 1,4-naphthoquinones with various substitutions at the 2′ and 3′ positions were tested to determine the minimum structural requirement of the system and what the optimum scaffold for future developmental efforts and biological validation would be (FIG. 1B and Table 1). […] Substitution by a single methyl group at the 2′ position (VK3) improves the compound's ability to protect against cell death. Various other simple substituents at the 2′ and 3′ positions give the naphthoquinone structure the ability to prevent oxidative cell death at nanomolar concentrations (Table 1 and FIG. 16).

[2] = In vitro neurotoxicity without glutamate (MTS cell viability); conditions: mouse, HT22 cells without glutamate, 24 hrs, MTS, concentration producing 50% toxicity, read-out: Toxicity TC50
Procedure: as §1, §2

HT22 cells [3] = test: as above; conditions: for Safety Index TC50/PC50: HT22 cells; for CC50: HT22 cells without glutamate, 24 hrs, MTS, concentration producing 50% toxicity, read-out: Toxicity TC50
Procedure: as §1, §2

[4] = HT-22, HT22 cells, 10 mM glutamate, 24 hrs, MTS, concentration producing 50% protection
[5] = HT22 neuronal cells (without glutamate)

O=C(O)c1cc(=O)c2ccccc2o1
EC50 (HT22 cells [1]; [4]): > 1000 nM
CC50 at 24 h [2, 5]: > 100000 nM

O=C(O)c1coc2ccccc2c1=O
EC50 (HT22 cells [1]; [4]): > 1000 nM
CC50 at 24 h [2, 5]: > 100000 nM

O=C(Nc1ccccc1)c1cc(=O)c2ccccc2o1 [4-oxo-N-phenyl-4H-chromene-2-carboxamide]
EC50 (HT22 cells [1]; [4]): > 1000 nM
CC50 at 24 h [2, 5]: > 100000 nM

O=C(Nc1ccccc1)c1coc2ccccc2c1=O [4-oxo-N-phenyl-4H-chromene-3-carboxamide]
EC50 (HT22 cells [1]; [4]): > 1000 nM
CC50 at 24 h [2, 5]: > 100000 nM

O=C1C=CC(=O)c2ccccc21 [Compound 1a, 1,4-naphthoquinone, reference compound]
EC50 (HT22 cells [1]; [4]): 1540 nM
Safety Index TC50/PC50 (HT22 cells [3]): 12
CC50 (HT22 cells [3]): 19000 nM

CC1=C(C)C(=O)c2ccccc2C1=O [Compound 1c]
EC50 (HT22 cells [1]; [4]): 118 nM
Safety Index TC50/PC50 (HT22 cells [3]): 254
CC50 (HT22 cells [3]): 30000 nM

NC1=CC(=O)c2ccccc2C1=O [Compound 1d, 2-amino-1,4-naphthoquinone]
EC50 (HT22 cells [1]; HT-22, 24 h): 61 nM
Safety Index TC50/PC50 (HT22 cells [3]): 803
CC50 (HT22 cells [3]): 49000 nM

CC1=C(N)C(=O)c2ccccc2C1=O [Compound 1e, 2-amino-3-methyl-1,4-naphthoquinone]
EC50 (HT22 cells [1]; [4]): 1740 nM
Safety Index TC50/PC50 (HT22 cells [3]): 31
CC50 (HT22 cells [3]): 54000 nM

O=C(O)C1=CC(=O)c2ccccc2C1=O [Compound 1f]
EC50 (HT22 cells [1]; [4]): 716 nM
Safety Index TC50/PC50 (HT22 cells [3]): 140
CC50 (HT22 cells [3]): > 100000 nM

O=C1C=C(O)C(=O)c2ccccc21 [Compound 1g]
EC50 (HT22 cells [1]; HT-22, 24 h): 1000 nM
Safety Index TC50/PC50 (HT22 cells [3]): 100
CC50 (HT22 cells [3]): > 100000 nM

CNC1=CC(=O)c2ccccc2C1=O [Compound 2a, 2-(methylamino)naphthalene-1,4-dione]
EC50 (HT22 cells [1]; [4]): 1350 nM
Safety Index TC50/PC50 (HT22 cells [3]): 74
CC50 (HT22 cells [3]): > 100000 nM

CCNC1=CC(=O)c2ccccc2C1=O [Compound 2b, 2-(ethylamino)naphthalene-1,4-dione]
EC50 (HT22 cells [1]; [4]): 761 nM
Safety Index TC50/PC50 (HT22 cells [3]): 106
CC50 (HT22 cells [3]): 81000 nM

CC(C)NC1=CC(=O)c2ccccc2C1=O [Compound 2d, 2-(isopropylamino)naphthalene-1,4-dione]
EC50 (HT22 cells [1]; [4]): 1700 nM
Safety Index TC50/PC50 (HT22 cells [3]): 27
CC50 (HT22 cells [3]): 46000 nM

CCCNC1=CC(=O)c2ccccc2C1=O [Compound 2e, 2-(propylamino)naphthalene-1,4-dione]
EC50 (HT22 cells [1]; [4]): 328 nM
Safety Index TC50/PC50 (HT22 cells [3]): 91
CC50 (HT22 cells [3]): 30000 nM

O=C1C=C(NC2CCCC2)C(=O)c2ccccc21 [Compound 2f, 2-(cyclopentylamino)naphthalene-1,4-dione]
EC50 (HT22 cells [1]; [4]): 409 nM
Safety Index TC50/PC50 (HT22 cells [3]): 108
CC50 (HT22 cells [3]): 44000 nM

O=C1C=C(NCC2CCCCC2)C(=O)c2ccccc21 [Compound 2g, 2-((cyclohexylmethyl)amino)naphthalene-1,4-dione]
EC50 (HT22 cells [1]; [4]): 54 nM
Safety Index TC50/PC50 (HT22 cells [3]): 1,852
CC50 (HT22 cells [3]): > 100000 nM

O=C1C=C(Nc2ccccc2)C(=O)c2ccccc21 [Compound 2i, 2-(phenylamino)naphthalene-1,4-dione]
EC50 (HT22 cells [1]; HT-22, 24 h): 64 nM
Safety Index TC50/PC50 (HT22 cells [3]): 109
CC50 (HT22 cells [3]): 7000 nM

CN(Cc1ccccc1)C1=CC(=O)c2ccccc2C1=O [Compound 2k, 2-(benzyl(methyl)amino)naphthalene-1,4-dione]
EC50 (HT22 cells [1]; [4]): 128 nM
Safety Index TC50/PC50 (HT22 cells [3]): 781
CC50 (HT22 cells [3]): > 100000 nM

O=C1C=C(NCCc2ccccc2)C(=O)c2ccccc21 [Compound 2l]
EC50 (HT22 cells [1]; [4]): 584 nM
Safety Index TC50/PC50 (HT22 cells [3]): 171
CC50 (HT22 cells [3]): > 100000 nM

O=C1C=C(NCc2ccncc2)C(=O)c2ccccc21 [Compound 2m, 2-((pyridin-4-ylmethyl)amino)naphthalene-1,4-dione]
EC50 (HT22 cells [1]; [4]): 72 nM
Safety Index TC50/PC50 (HT22 cells [3]): 1,111
CC50 (HT22 cells [3]): 80000 nM

O=C1C=C(NCc2cccnc2)C(=O)c2ccccc21 [Compound 2n, 2-((pyridin-3-ylmethyl)amino)naphthalene-1,4-dione]
EC50 (HT22 cells [1]; [4]): 215 nM
Safety Index TC50/PC50 (HT22 cells [3]): 172
CC50 (HT22 cells [3]): 37000 nM

O=C1C=C(NCc2ccccn2)C(=O)c2ccccc21 [Compound 2o, 2-((pyridin-2-ylmethyl)amino)naphthalene-1,4-dione]
EC50 (HT22 cells [1]; [4]): 933 nM
Safety Index TC50/PC50 (HT22 cells [3]): 54
CC50 (HT22 cells [3]): 50000 nM

O=C1C=C(NCc2ccc(Cl)cc2)C(=O)c2ccccc21 [Compound 2p, 2-((4-chlorobenzyl)amino)naphthalene-1,4-dione]
EC50 (HT22 cells [1]; [4]): 59 nM
Safety Index TC50/PC50 (HT22 cells [3]): 1,695
CC50 (HT22 cells [3]): > 100000 nM

Cc1ccc(CNC2=CC(=O)c3ccccc3C2=O)cc1 [Compound 2r, 2-((4-methylbenzyl)amino)naphthalene-1,4-dione]
EC50 (HT22 cells [1]; HT-22, 24 h): 66 nM
Safety Index TC50/PC50 (HT22 cells [3]): 1,515
CC50 (HT22 cells [3]): > 100000 nM

COc1ccc(CNC2=CC(=O)c3ccccc3C2=O)cc1 [Compound 2s, 2-((4-methoxybenzyl)amino)naphthalene-1,4-dione]
EC50 (HT22 cells [1]; [4]): 114 nM
Safety Index TC50/PC50 (HT22 cells [3]): 877
CC50 (HT22 cells [3]): > 100000 nM

COC(=O)c1ccc(CNC2=CC(=O)c3ccccc3C2=O)cc1 [Compound 2t, methyl 4-(((1,4-dioxo-1,4-dihydronaphthalen-2-yl)amino)methyl)benzoate]
EC50 (HT22 cells [1]; [4]): 232 nM
Safety Index TC50/PC50 (HT22 cells [3]): 431
CC50 (HT22 cells [3]): > 100000 nM

O=C1C=C(NCc2cccc(C(F)(F)F)c2)C(=O)c2ccccc21 [Compound 2u, 2-((3-(trifluoromethyl)benzyl)amino)naphthalene-1,4-dione]
EC50 (HT22 cells [1]; [4]): 45 nM
Safety Index TC50/PC50 (HT22 cells [3]): 2,222
CC50 (HT22 cells [3]): > 100000 nM

O=C1C=C(NCc2ccc(Cl)c(Cl)c2)C(=O)c2ccccc21 [Compound 2v, 2-((3,4-dichlorobenzyl)amino)naphthalene-1,4-dione]
EC50 (HT22 cells [1]; [4]): 46 nM
Safety Index TC50/PC50 (HT22 cells [3]): 2,174
CC50 (HT22 cells [3]): > 100000 nM

CC(=O)NC1=CC(=O)c2ccccc2C1=O [Compound 3a, N-(1,4-dioxo-1,4-dihydronaphthalen-2-yl)acetamide]
EC50 (HT22 cells [1]; [4]): 616 nM
CC50 at 24 h [2]: > 100000 nM
Safety Index TC50/PC50 (HT22 cells [3]): 162

CCC(=O)NC1=CC(=O)c2ccccc2C1=O [Compound 3b, N-(1,4-dioxo-1,4-dihydronaphthalen-2-yl)propionamide]
EC50 (HT22 cells [1]; [4]): 760 nM
CC50 at 24 h [2]: 80000 nM
Safety Index TC50/PC50 (HT22 cells [3]): 105

COC(=O)NC1=CC(=O)c2ccccc2C1=O [Compound 3c, methyl(1,4-dioxo-1,4-dihydronaphthalen-2-yl)carbamate]
EC50 (HT22 cells [1]; [4]): 69 nM
CC50 at 24 h [2]: 5000 nM
Safety Index TC50/PC50 (HT22 cells [3]): 72

CC(C)C(=O)NC1=CC(=O)c2ccccc2C1=O [Compound 3d, N-(1,4-dioxo-1,4-dihydronaphthalen-2-yl)isobutyramide]
EC50 (HT22 cells [1]; [4]): > 1000 nM
CC50 at 24 h [2, 5]: 8000 nM
Safety Index TC50/PC50 (HT22 cells [3]): 0

O=C1C=C(NC(=O)C2CCCC2)C(=O)c2ccccc21 [Compound 3e, N-(1,4-dioxo-1,4-dihydronaphthalen-2-yl)cyclopentanecarboxamide]
EC50 (HT22 cells [1]; [4]): > 1000 nM
CC50 at 24 h [2, 5]: 6000 nM
Safety Index TC50/PC50 (HT22 cells [3]): 0

O=C1C=C(NC(=O)C2CCCCC2)C(=O)c2ccccc21 [Compound 3f, N-(1,4-dioxo-1,4-dihydronaphthalen-2-yl)cyclohexanecarboxamide]
EC50 (HT22 cells [1]; [4]): 275 nM
CC50 at 24 h [2, 5]: 14000 nM
Safety Index TC50/PC50 (HT22 cells [3]): 51

O=C(NC1=CC(=O)c2ccccc2C1=O)c1ccccc1 [Compound 3g, N-(1,4-dioxo-1,4-dihydronaphthalen-2-yl)benzamide]
EC50 (HT22 cells [1]; HT-22, 24 h): 500 nM
CC50 at 24 h [2, 5]: 17000 nM
Safety Index TC50/PC50 (HT22 cells [3]): 34

Cc1ccc(C(=O)NC2=CC(=O)c3ccccc3C2=O)cc1 [Compound 3h, N-(1,4-dioxo-1,4-dihydronaphthalen-2-yl)-4-methylbenzamide]
EC50 (HT22 cells [1]; [4]): 382 nM
CC50 at 24 h [2, 5]: 24000 nM
Safety Index TC50/PC50 (HT22 cells [3]): 63
